# ± gives the standard deviation of the averaged measurements.
# Test system: HL-60
# Test: cell viability (% survival relative to DMSO control); higher = less cytotoxic
# Details: 10 µM; 72 h; co-treatment: DMSO vehicle
# In short: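 Area under the curve, where listed, was derived from four-parameter log-logistic fits with drc and PharmacoGx. These fits used CellTiter-Glo viability from HL-60 cells in RPMI 1640 with 10% FBS, normalised to DMSO wells and wells holding 10 μM proteasome inhibitor. The full library was rescreened on 384-well plates in duplicate at five tenfold concentrations, 1–10,000 nM, with DMSO or 100 nM of one of three metabolic inhibitors, for 72 h at 37 °C, 5% CO2.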
row,Structure (SMILES),cell viability
1,N[C@@H](CCC(=O)N[C@@H](CS)C(=O)NCC(=O)O)C(=O)O [Glutathione],102.2 ± 0.32%
2,Clc1cc(Cl)c(OCC#CI)cc1Cl [Haloprogin],57.3 ± 15%
3,O=c1[nH]c(=O)n([C@H]2C[C@H](O)[C@@H](CO)O2)cc1I [Idoxuridine],103 ± 3.1%
4,CC1Cc2ccccc2N1NC(=O)c1ccc(Cl)c(S(N)(=O)=O)c1 (centres undefined) [Indapamide],103.2 ± 0.48%
5,NS(=O)(=O)c1ccc(S(=O)(=O)Nc2cccc3c(Cl)c[nH]c23)cc1 [Indisulam],92.2 ± 5.2%
6,COc1ccc2c(c1)c(CC(=O)O)c(C)n2C(=O)c1ccc(Cl)cc1 [Indomethacine],100 ± 3%
7,Cn1cc(C[C@@H](N)C(=O)O)c2ccccc21 [Indoximod],96.7 ± 1.3%

# Same assay, conditions: 10 µM; 72 h; co-treatment: GSK2194069 100 nM
row,Structure (SMILES),cell viability
1,OC[C@H]1N[C@@H](c2c[nH]c3c(O)ncnc23)[C@H](O)[C@@H]1O [Forodesine],95.9 ± 5.8%
2,O=c1oc2c(cc1O)oc(=O)c1cc(O)c(O)c(O)c12 [Galloflavin],96.52 ± 0.27%
3,Nc1ccn([C@@H]2O[C@H](CO)[C@@H](O)C2(F)F)c(=O)n1 [Gemcitabine],3.32 ± 1.2%
4,N[C@@H](CCC(=O)N[C@@H](CS)C(=O)NCC(=O)O)C(=O)O [Glutathione],100.27 ± 0.053%
5,Clc1cc(Cl)c(OCC#CI)cc1Cl [Haloprogin],71.4 ± 8.5%
6,O=c1[nH]c(=O)n([C@H]2C[C@H](O)[C@@H](CO)O2)cc1I [Idoxuridine],86.4 ± 4.5%
7,CC1Cc2ccccc2N1NC(=O)c1ccc(Cl)c(S(N)(=O)=O)c1 (centres undefined) [Indapamide],99.6 ± 4.5%
8,NS(=O)(=O)c1ccc(S(=O)(=O)Nc2cccc3c(Cl)c[nH]c23)cc1 [Indisulam],90.9 ± 1%
9,COc1ccc2c(c1)c(CC(=O)O)c(C)n2C(=O)c1ccc(Cl)cc1 [Indomethacine],89.1 ± 4.4%
10,Cn1cc(C[C@@H](N)C(=O)O)c2ccccc21 [Indoximod],86.2 ± 27%

# Same assay, conditions: 10 µM; 72 h; co-treatment: pictilisib 100 nM
row,Structure (SMILES),cell viability
1,OC[C@H]1N[C@@H](c2c[nH]c3c(O)ncnc23)[C@H](O)[C@@H]1O [Forodesine],103.8 ± 0.76%
2,O=c1oc2c(cc1O)oc(=O)c1cc(O)c(O)c(O)c12 [Galloflavin],98.54 ± 0.6%
3,Nc1ccn([C@@H]2O[C@H](CO)[C@@H](O)C2(F)F)c(=O)n1 [Gemcitabine],2.52 ± 0.74%
4,N[C@@H](CCC(=O)N[C@@H](CS)C(=O)NCC(=O)O)C(=O)O [Glutathione],106 ± 4.5%
5,Clc1cc(Cl)c(OCC#CI)cc1Cl [Haloprogin],14.4 ± 5.2%
6,O=c1[nH]c(=O)n([C@H]2C[C@H](O)[C@@H](CO)O2)cc1I [Idoxuridine],90 ± 3.7%
7,CC1Cc2ccccc2N1NC(=O)c1ccc(Cl)c(S(N)(=O)=O)c1 (centres undefined) [Indapamide],98.4 ± 2.1%
8,NS(=O)(=O)c1ccc(S(=O)(=O)Nc2cccc3c(Cl)c[nH]c23)cc1 [Indisulam],77.3 ± 7.4%
9,COc1ccc2c(c1)c(CC(=O)O)c(C)n2C(=O)c1ccc(Cl)cc1 [Indomethacine],88.4 ± 1.3%
10,Cn1cc(C[C@@H](N)C(=O)O)c2ccccc21 [Indoximod],93.9 ± 19%

# Test system: SHI-1
# Test: not given
# Details: 72 h
# In short: (§1)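 The IC50 was derived from log-logistic dose–response fitting. Each of fifteen myeloid leukaemia cell lines, seeded in RPMI 1640 within its linear growth range, was exposed in 384-well plates to five tenfold doses (1 to 10,000 nM) in duplicate for 72 h at 37 °C and 5% CO2. Luminescent ATP viability readings were normalised to vehicle and to a positive control at 10 µM before four-parameter curve fitting.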
row,Structure (SMILES),IC50 (cell viability)
1,OC[C@H]1N[C@@H](c2c[nH]c3c(O)ncnc23)[C@H](O)[C@@H]1O [Forodesine],> 10 µM
2,O=c1oc2c(cc1O)oc(=O)c1cc(O)c(O)c(O)c12 [Galloflavin],> 10 µM
3,Nc1ccn([C@@H]2O[C@H](CO)[C@@H](O)C2(F)F)c(=O)n1 [Gemcitabine],0.00479 µM
4,N[C@@H](CCC(=O)N[C@@H](CS)C(=O)NCC(=O)O)C(=O)O [Glutathione],> 10 µM
5,Clc1cc(Cl)c(OCC#CI)cc1Cl [Haloprogin],> 10 µM
6,O=c1[nH]c(=O)n([C@H]2C[C@H](O)[C@@H](CO)O2)cc1I [Idoxuridine],> 10 µM
7,CC1Cc2ccccc2N1NC(=O)c1ccc(Cl)c(S(N)(=O)=O)c1 (centres undefined) [Indapamide],> 10 µM
8,NS(=O)(=O)c1ccc(S(=O)(=O)Nc2cccc3c(Cl)c[nH]c23)cc1 [Indisulam],1.28 µM
9,COc1ccc2c(c1)c(CC(=O)O)c(C)n2C(=O)c1ccc(Cl)cc1 [Indomethacine],> 10 µM
10,Cn1cc(C[C@@H](N)C(=O)O)c2ccccc21 [Indoximod],> 10 µM

# Test system: HL-60
# Test: not given
# Details: 72 h
# In short: as §1
row,Structure (SMILES),IC50 (cell viability)
1,OC[C@H]1N[C@@H](c2c[nH]c3c(O)ncnc23)[C@H](O)[C@@H]1O [Forodesine],> 10 µM
2,O=c1oc2c(cc1O)oc(=O)c1cc(O)c(O)c(O)c12 [Galloflavin],> 10 µM
3,Nc1ccn([C@@H]2O[C@H](CO)[C@@H](O)C2(F)F)c(=O)n1 [Gemcitabine],0.00803 µM
4,N[C@@H](CCC(=O)N[C@@H](CS)C(=O)NCC(=O)O)C(=O)O [Glutathione],> 10 µM
5,Clc1cc(Cl)c(OCC#CI)cc1Cl [Haloprogin],> 10 µM
6,O=c1[nH]c(=O)n([C@H]2C[C@H](O)[C@@H](CO)O2)cc1I [Idoxuridine],> 10 µM
7,CC1Cc2ccccc2N1NC(=O)c1ccc(Cl)c(S(N)(=O)=O)c1 (centres undefined) [Indapamide],> 10 µM
8,NS(=O)(=O)c1ccc(S(=O)(=O)Nc2cccc3c(Cl)c[nH]c23)cc1 [Indisulam],7.32 µM
9,COc1ccc2c(c1)c(CC(=O)O)c(C)n2C(=O)c1ccc(Cl)cc1 [Indomethacine],> 10 µM
10,Cn1cc(C[C@@H](N)C(=O)O)c2ccccc21 [Indoximod],> 10 µM

# Test system: THP-1
# Test: not given
# Details: 72 h
# In short: as §1
row,Structure (SMILES),IC50 (cell viability)
1,OC[C@H]1N[C@@H](c2c[nH]c3c(O)ncnc23)[C@H](O)[C@@H]1O [Forodesine],> 10 µM
2,O=c1oc2c(cc1O)oc(=O)c1cc(O)c(O)c(O)c12 [Galloflavin],> 10 µM
3,Nc1ccn([C@@H]2O[C@H](CO)[C@@H](O)C2(F)F)c(=O)n1 [Gemcitabine],0.00687 µM
4,N[C@@H](CCC(=O)N[C@@H](CS)C(=O)NCC(=O)O)C(=O)O [Glutathione],> 10 µM
5,Clc1cc(Cl)c(OCC#CI)cc1Cl [Haloprogin],1.69 µM
6,O=c1[nH]c(=O)n([C@H]2C[C@H](O)[C@@H](CO)O2)cc1I [Idoxuridine],> 10 µM
7,CC1Cc2ccccc2N1NC(=O)c1ccc(Cl)c(S(N)(=O)=O)c1 (centres undefined) [Indapamide],> 10 µM
8,NS(=O)(=O)c1ccc(S(=O)(=O)Nc2cccc3c(Cl)c[nH]c23)cc1 [Indisulam],> 10 µM
9,COc1ccc2c(c1)c(CC(=O)O)c(C)n2C(=O)c1ccc(Cl)cc1 [Indomethacine],> 10 µM
10,Cn1cc(C[C@@H](N)C(=O)O)c2ccccc21 [Indoximod],> 10 µM

# Test system: BV-173
# Test: not given
# Details: 72 h
# In short: as §1
row,Structure (SMILES),IC50 (cell viability)
1,OC[C@H]1N[C@@H](c2c[nH]c3c(O)ncnc23)[C@H](O)[C@@H]1O [Forodesine],> 10 µM
2,O=c1oc2c(cc1O)oc(=O)c1cc(O)c(O)c(O)c12 [Galloflavin],> 10 µM

# — the supplement of paper PMC8671470
